{"source": "patent US20250017940A1", "about": "“SELECTIVE PEPTIDOMIMETIC MODULATORS OF CAV2.2 (N-TYPE) VOLTAGE-GATED CALCIUM CHANNELS AND USES THEREOF” (New York University, priority 2023, published 2025)", "system": "Na+ channels", "assay": "Whole-cell patch-clamp, total Na+ currents in DRG neurons", "format": "cell-based, rat", "method": "Recordings were obtained from acutely dissociated DRG neurons as described earlier (Bellampalli et al., 2019). Patch-clamp recordings were performed at room temperature (22-24° C.). Currents were recorded using an EPC 10 Amplifier-HEKA (HEKA Elektronik, Ludwigshafen, Germany) linked to a computer with Patchmaster software. DRG neurons were incubated overnight (˜16-24 hours) with 20 μM of CBD3063.\nFor Na^+ current (INa^+) recordings, the external solution contained (in mM): 130 NaCl, 3 KCl, 30 tetraethylammonium chloride, 1 CaCl2, 0.5 CdCl2, 1 MgCl2, 10 D-glucose, and 10 HEPES (pH 7.3 adjusted with NaOH, and mOsm/L=324). Patch pipettes were filled with an internal solution containing (in mM): 140 CsF, 1.1Cs-EGTA, 10 NaCl, and 15 HEPES (pH 7.3 adjusted with CsOH, and mOsm/L=311). Peak Na^+ current was acquired by applying 150-millisecond voltage steps from −70 to +60 mV in 5-mV increments from a holding potential of −60 mV to obtain the current-voltage (I-V) relation.\nNormalization of currents to each cell's capacitance (pF) was performed to allow for collection of current density data. For I-V curves, functions were fitted to data using a non-linear least squares analysis. I-V curves were fitted using double Boltzmann functions:\nActivation curves were obtained from the I-V curves by dividing the peak current at each depolarizing step by the driving force according to the equation: G=I/(Vmem-Erev), where I is the peak current, Vmem is the membrane potential and Erev is the reversal potential. The conductance (G) was normalized against the maximum conductance (Gmax). For total and the different subtypes of Ca^2+ currents, steady-state inactivation (SSI) curves were obtained by applying an H-infinity protocol that consisted of 1.5-seconds conditioning pre-pulses from −100 to +30 mV in 10-mV increments followed by a 20-millisecond test pulse to +10 mV. For Na^+ currents, SSI curves were obtained by applying an H-infinity protocol that consisted of 1-second conditioning pre-pulses from −120 to +10 mV in 10-mV increments followed by a 200-millisecond test pulse to +10 mV. Inactivation curves were obtained by dividing the peak current recorded at the test pulse by the maximum current (Imax). Activation and SSI curves were fitted with the Boltzmann equation.", "key": {"[1]": {"conditions": "20 μM overnight, mean ± SEM (n cells)"}}, "data": [{"smiles": "CC(=O)N[C@@H]1CCCN(C(=O)NCCCNc2ccccn2)C1", "note": "[CBD3063, (3R)-3-acetamido-N-[3-(pyridin-2-ylamino)propyl]piperidine-1-carboxamide]", "values": [{"measurement": "peak Na+ current density", "setting": "20 μM overnight (DMSO: −455.7±78.70)", "value": "−455.0±60.79", "unit": "pA/pF"}, {"measurement": "Na+ currents, activation V1/2", "setting": "[1]", "value": "−21.738 ± 0.852 (12) mV"}, {"measurement": "Na+ currents, activation k (slope factor)", "setting": "[1]", "value": "4.749 ± 0.744 (12)"}, {"measurement": "Na+ currents, inactivation V1/2", "setting": "[1]", "value": "−32.552 ± 2.084 (12) mV"}, {"measurement": "Na+ currents, inactivation k (slope factor)", "setting": "[1]", "value": "−12.003 ± 1.936 (12)"}]}]}
